Experimental data reported in the kinase profiling compilation of Christmann-Franck et al. (2016).
Values joined by “and” are separate entries in the source; they are usually repeats but may differ in a detail not shown here. Equal values may be shown once. Blank lines part the entries; values can stand above or below the molecule they belong to.

How the values were obtained:
Test in all cases: Caliper, Mobility shift assay off-chip
TSSK3 (human) = TSSK3 (human) (UniProt Q96PN8)
BRSK1 (human) = BRSK1 (human) (UniProt Q8TDC3)
BRSK1 (human), sequence (Q8TDC3 whole entry, looked up): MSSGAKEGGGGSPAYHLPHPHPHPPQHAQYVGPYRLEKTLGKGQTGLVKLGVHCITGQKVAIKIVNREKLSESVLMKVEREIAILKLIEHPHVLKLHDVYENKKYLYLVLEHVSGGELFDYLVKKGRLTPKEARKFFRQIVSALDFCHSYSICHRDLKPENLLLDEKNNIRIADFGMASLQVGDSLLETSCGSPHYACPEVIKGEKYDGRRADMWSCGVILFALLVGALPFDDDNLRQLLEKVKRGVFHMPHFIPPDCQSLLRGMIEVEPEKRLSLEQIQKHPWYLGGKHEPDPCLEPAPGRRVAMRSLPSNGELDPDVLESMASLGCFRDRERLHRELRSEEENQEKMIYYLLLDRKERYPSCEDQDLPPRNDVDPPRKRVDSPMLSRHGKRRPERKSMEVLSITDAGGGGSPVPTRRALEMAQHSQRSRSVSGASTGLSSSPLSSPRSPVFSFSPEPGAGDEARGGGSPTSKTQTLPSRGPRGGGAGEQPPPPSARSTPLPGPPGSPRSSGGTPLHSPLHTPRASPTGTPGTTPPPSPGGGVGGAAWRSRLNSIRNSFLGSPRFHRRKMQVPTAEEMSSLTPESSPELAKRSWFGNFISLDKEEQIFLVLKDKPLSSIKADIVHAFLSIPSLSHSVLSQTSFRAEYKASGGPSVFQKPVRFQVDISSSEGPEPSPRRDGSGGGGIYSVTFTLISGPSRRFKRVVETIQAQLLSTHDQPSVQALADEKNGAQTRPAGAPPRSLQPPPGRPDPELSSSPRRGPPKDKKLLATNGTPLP

GSG2 (human) = GSG2 (human) (UniProt Q8TF76)
IRAK4 (human) = IRAK4 (human) (UniProt Q9NWZ3)
JAK1 JH1 JH2 (human) = JAK1 JH1 JH2 (human) (UniProt P23458)
AKT2 (human) = AKT2 (human) (UniProt P31751)
WNK1 (human) = WNK1 (human) (UniProt Q9H4A3)
RET (human) = RET (human) (UniProt P07949)
SYK (human) = SYK (human) (UniProt P43405)
PRKD3 (human) = PRKD3 (human) (UniProt O94806)
FLT3 (human) = FLT3 (human) (UniProt P36888)
PIK3CA PIK3R1 (human) = PIK3CA PIK3R1 (human) (UniProt P27986+P42336)
HCK (human) = HCK (human) (UniProt P08631)
HCK (human), sequence (P08631 whole entry, looked up): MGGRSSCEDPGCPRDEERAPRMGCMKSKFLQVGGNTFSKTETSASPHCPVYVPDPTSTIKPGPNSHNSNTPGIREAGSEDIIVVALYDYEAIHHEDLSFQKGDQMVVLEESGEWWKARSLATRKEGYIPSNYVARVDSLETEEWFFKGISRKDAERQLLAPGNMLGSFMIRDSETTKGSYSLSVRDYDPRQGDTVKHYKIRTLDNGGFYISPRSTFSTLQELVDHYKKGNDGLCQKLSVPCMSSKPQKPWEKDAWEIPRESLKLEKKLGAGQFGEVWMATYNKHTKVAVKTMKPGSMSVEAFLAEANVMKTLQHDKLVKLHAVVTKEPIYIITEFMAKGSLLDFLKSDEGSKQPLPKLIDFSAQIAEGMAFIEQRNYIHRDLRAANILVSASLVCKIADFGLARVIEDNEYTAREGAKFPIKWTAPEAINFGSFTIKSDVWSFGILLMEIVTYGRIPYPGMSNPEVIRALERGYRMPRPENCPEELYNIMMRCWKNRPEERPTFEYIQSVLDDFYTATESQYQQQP

LTK (human) = LTK (human) (UniProt P29376)
MARK1 (human) = MARK1 (human) (UniProt Q9P0L2)
MARK1 (human), sequence (Q9P0L2 whole entry, looked up): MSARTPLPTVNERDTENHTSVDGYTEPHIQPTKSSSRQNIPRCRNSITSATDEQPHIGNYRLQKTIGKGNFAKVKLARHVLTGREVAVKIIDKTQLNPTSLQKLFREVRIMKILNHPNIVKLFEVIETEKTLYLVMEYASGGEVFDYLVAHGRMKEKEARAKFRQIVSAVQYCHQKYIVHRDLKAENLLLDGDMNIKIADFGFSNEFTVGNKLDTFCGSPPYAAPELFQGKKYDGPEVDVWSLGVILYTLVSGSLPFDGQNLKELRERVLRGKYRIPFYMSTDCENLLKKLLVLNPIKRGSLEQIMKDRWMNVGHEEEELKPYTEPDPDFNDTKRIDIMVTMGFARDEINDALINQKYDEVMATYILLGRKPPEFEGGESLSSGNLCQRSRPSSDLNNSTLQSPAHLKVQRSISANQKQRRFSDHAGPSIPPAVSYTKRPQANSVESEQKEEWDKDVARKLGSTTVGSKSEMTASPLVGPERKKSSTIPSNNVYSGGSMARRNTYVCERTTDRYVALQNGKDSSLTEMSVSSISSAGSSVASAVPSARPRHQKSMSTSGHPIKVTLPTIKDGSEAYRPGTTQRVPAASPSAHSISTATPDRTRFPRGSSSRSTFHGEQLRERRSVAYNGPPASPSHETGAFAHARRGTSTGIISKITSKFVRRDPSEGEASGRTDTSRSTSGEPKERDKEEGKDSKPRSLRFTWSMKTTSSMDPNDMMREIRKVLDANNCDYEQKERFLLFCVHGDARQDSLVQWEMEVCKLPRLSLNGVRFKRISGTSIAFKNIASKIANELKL

PAK3 (human) = PAK3 (human) (UniProt O75914)
PAK3 (human), sequence (O75914 whole entry, looked up): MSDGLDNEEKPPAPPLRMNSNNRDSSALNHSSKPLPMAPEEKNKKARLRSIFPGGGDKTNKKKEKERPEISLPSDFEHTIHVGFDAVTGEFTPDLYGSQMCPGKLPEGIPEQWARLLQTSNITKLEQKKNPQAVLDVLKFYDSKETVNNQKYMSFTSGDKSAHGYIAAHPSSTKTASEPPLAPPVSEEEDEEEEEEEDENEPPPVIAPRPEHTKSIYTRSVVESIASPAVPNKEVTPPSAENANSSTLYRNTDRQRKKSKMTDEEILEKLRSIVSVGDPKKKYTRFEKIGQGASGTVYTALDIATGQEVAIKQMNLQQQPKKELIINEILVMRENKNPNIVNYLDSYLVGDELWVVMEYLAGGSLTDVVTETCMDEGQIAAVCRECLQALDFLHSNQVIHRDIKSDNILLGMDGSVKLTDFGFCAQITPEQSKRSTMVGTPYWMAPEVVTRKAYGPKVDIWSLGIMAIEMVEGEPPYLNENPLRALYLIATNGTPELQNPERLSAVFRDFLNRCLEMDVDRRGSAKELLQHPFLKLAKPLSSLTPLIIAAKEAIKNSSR

INSR (human) = INSR (human) (UniProt P06213)
MERTK (human) = MERTK (human) (UniProt Q12866)
ABL2 (human) = ABL2 (human) (UniProt P42684)
ABL2 (human), sequence (P42684 whole entry, looked up): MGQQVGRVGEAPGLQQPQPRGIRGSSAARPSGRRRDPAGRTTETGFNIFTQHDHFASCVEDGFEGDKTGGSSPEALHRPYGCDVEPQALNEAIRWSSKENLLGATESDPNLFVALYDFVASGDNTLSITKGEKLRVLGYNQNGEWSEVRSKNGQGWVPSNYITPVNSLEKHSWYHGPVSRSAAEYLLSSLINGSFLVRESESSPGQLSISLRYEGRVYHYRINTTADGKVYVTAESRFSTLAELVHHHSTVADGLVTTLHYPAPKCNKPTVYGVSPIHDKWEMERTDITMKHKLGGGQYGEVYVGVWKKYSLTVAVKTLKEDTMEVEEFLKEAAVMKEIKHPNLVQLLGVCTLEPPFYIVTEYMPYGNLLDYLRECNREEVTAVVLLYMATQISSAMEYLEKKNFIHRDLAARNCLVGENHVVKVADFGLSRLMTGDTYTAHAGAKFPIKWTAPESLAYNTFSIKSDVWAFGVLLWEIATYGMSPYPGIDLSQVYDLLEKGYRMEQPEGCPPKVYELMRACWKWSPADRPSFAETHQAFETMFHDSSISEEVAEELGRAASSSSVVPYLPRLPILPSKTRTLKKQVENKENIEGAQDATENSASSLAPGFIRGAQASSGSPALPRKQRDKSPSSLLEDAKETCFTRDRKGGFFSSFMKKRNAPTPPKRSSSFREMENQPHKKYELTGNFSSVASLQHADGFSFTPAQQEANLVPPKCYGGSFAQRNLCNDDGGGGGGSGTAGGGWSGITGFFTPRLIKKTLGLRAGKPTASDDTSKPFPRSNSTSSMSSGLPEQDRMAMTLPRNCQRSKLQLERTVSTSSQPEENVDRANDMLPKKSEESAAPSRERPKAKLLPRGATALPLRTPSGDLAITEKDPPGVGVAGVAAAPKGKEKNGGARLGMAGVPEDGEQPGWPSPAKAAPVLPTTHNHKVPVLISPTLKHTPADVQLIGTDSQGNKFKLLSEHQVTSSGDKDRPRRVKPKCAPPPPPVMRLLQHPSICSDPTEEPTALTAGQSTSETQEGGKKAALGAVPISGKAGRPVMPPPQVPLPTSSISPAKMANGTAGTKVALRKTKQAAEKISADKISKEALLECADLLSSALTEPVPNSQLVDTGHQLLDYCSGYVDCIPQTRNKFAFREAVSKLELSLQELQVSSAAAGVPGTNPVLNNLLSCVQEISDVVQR

PRKX (human) = PRKX (human) (UniProt P51817)
PRKCQ (human) = PRKCQ (human) (UniProt Q04759)
CDK2 (human) = CDK2 (human) (UniProt P24941)
MST1R (human) = MST1R (human) (UniProt Q04912)
EPHA2 (human) = EPHA2 (human) (UniProt P29317)
SGK3 (human) = SGK3 (human) (UniProt Q96BR1)
SGK3 (human), sequence (Q96BR1 whole entry, looked up): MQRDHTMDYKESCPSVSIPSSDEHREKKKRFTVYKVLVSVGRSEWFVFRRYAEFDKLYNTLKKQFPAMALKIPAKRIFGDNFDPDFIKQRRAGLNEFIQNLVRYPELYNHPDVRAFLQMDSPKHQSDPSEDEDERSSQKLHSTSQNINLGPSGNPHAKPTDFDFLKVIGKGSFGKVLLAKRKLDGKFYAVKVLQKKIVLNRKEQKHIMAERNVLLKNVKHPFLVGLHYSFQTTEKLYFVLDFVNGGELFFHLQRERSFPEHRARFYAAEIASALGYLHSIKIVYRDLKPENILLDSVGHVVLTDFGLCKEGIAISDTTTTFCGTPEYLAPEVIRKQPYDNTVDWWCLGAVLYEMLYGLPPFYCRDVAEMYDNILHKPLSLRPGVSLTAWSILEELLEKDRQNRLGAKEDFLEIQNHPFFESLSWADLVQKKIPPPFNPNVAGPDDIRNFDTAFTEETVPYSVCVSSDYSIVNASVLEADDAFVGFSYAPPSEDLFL

SPHK2 (human) = SPHK2 (human) (UniProt Q9NRA0)
BMX (human) = BMX (human) (UniProt P51813)
CSNK2A1 (human) = CSNK2A1 (human) (UniProt P68400)
BRSK2 (human) = BRSK2 (human) (UniProt Q8IWQ3)
BRSK2 (human), sequence (Q8IWQ3 whole entry, looked up): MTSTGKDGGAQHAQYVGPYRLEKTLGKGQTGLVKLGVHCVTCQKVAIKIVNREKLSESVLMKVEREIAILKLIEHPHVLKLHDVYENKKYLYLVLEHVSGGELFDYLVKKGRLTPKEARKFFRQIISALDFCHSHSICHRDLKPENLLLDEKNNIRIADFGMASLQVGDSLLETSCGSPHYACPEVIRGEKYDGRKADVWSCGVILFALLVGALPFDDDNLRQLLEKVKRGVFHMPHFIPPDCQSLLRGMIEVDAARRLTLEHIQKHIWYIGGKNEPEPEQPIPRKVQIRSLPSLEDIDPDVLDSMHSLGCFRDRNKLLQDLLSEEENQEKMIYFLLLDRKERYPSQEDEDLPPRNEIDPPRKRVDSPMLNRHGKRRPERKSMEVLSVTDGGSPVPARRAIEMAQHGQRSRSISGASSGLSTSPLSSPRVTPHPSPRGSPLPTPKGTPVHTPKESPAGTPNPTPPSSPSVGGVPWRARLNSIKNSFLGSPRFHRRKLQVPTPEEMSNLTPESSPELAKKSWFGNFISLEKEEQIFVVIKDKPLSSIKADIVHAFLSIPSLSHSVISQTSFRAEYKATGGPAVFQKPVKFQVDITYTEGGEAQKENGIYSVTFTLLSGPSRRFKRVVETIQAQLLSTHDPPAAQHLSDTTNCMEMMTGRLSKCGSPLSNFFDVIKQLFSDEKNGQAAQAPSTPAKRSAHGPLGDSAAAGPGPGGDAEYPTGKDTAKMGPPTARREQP

ITK (human) = ITK (human) (UniProt Q08881)
MET (human) = MET (human) (UniProt P08581); details: compound 0.001 µM
IGF1R (human) = IGF1R (human) (UniProt P08069)
FYN (human) = FYN (human) (UniProt P06241)

inhibition (TSSK3 (human); compound 0.02 µM): 2.2% | inhibition (TSSK3 (human); compound 0.2 µM): 6.7% | inhibition (BRSK1 (human); compound 0.02 µM): 5.3% | inhibition (BRSK1 (human); compound 0.2 µM): 3.2% | inhibition (GSG2 (human); compound 0.02 µM): -1.1% | inhibition (GSG2 (human); compound 0.2 µM): 4.3% | inhibition (IRAK4 (human); compound 0.02 µM): -4.3% | inhibition (IRAK4 (human); compound 0.2 µM): -3.9% | inhibition (JAK1 JH1 JH2 (human); compound 0.02 µM): -2.2% | inhibition (JAK1 JH1 JH2 (human); compound 0.2 µM): 0.8% | inhibition (AKT2 (human); compound 0.02 µM): 4.7% | inhibition (AKT2 (human); compound 0.2 µM): 3% | inhibition (WNK1 (human); compound 0.02 µM): 1.6% | inhibition (WNK1 (human); compound 0.2 µM): 5.1% | inhibition (RET (human); compound 0.02 µM): 32.3% | inhibition (RET (human); compound 0.2 µM): 82.1% | inhibition (SYK (human); compound 0.02 µM): 4.4% | inhibition (SYK (human); compound 0.2 µM): -4.7% | inhibition (PRKD3 (human); compound 0.02 µM): -1.6% | inhibition (PRKD3 (human); compound 0.2 µM): 1.3% | inhibition (FLT3 (human); compound 0.02 µM): 24.7% | inhibition (FLT3 (human); compound 0.2 µM): 69.9% | inhibition (PIK3CA PIK3R1 (human); compound 0.02 µM): 64.2% | inhibition (PIK3CA PIK3R1 (human); compound 0.2 µM): 68.1% | inhibition (HCK (human); compound 0.02 µM): 2.6% | inhibition (HCK (human); compound 0.2 µM): 25.1% | inhibition (LTK (human); compound 0.02 µM): 5.1% | inhibition (LTK (human); compound 0.2 µM): 11.9% | inhibition (MARK1 (human); compound 0.02 µM): 4.6% | inhibition (MARK1 (human); compound 0.2 µM): 3% | inhibition (PAK3 (human); compound 0.02 µM): 5.7% | inhibition (PAK3 (human); compound 0.2 µM): 2.6% | inhibition (INSR (human); compound 0.02 µM): 0.3% | inhibition (INSR (human); compound 0.2 µM): 4.5% | inhibition (MERTK (human); compound 0.02 µM): 3% | inhibition (MERTK (human); compound 0.2 µM): 15.6% | inhibition (ABL2 (human); compound 0.02 µM): 2.6% | inhibition (ABL2 (human); compound 0.2 µM): 27.6% | inhibition (PRKX (human); compound 0.02 µM): -0.6% | inhibition (PRKX (human); compound 0.2 µM): 0.8% | inhibition (PRKCQ (human); compound 0.02 µM): 1.7% | inhibition (PRKCQ (human); compound 0.2 µM): 0.5% | inhibition (CDK2 (human); compound 0.02 µM): -0.1% and -1.7% | inhibition (CDK2 (human); compound 0.2 µM): -1.7% and -2.8% | inhibition (MST1R (human); compound 0.02 µM): 2.1% | inhibition (MST1R (human); compound 0.2 µM): 4.9% | inhibition (EPHA2 (human); compound 0.02 µM): -5% | inhibition (EPHA2 (human); compound 0.2 µM): -2.8% | inhibition (SGK3 (human); compound 0.02 µM): -0.2% | inhibition (SGK3 (human); compound 0.2 µM): -2.7% | inhibition (SPHK2 (human); compound 0.02 µM): 4.3% | inhibition (SPHK2 (human); compound 0.2 µM): -6.2% | inhibition (BMX (human); compound 0.02 µM): 6.9% | inhibition (BMX (human); compound 0.2 µM): 0.9% | inhibition (CSNK2A1 (human); compound 0.02 µM): -3% | inhibition (CSNK2A1 (human); compound 0.2 µM): -2.4% | inhibition (BRSK2 (human); compound 0.02 µM): -2.2% | inhibition (BRSK2 (human); compound 0.2 µM): 0.4% | inhibition (ITK (human); compound 0.02 µM): 7% | inhibition (ITK (human); compound 0.2 µM): 2%
SMILES: Cc1ccc(Nc2nccc(N(C)c3ccc4c(C)n(C)nc4c3)n2)cc1S(N)(=O)=O

inhibition (TSSK3 (human); compound 0.001 µM): -1.6% | inhibition (TSSK3 (human); compound 0.02 µM): 0% | inhibition (BRSK1 (human); compound 0.001 µM): -2.4% | inhibition (BRSK1 (human); compound 0.02 µM): 20.1% | inhibition (MET (human)): -2.4% | inhibition (GSG2 (human); compound 0.001 µM): -2.8% | inhibition (GSG2 (human); compound 0.02 µM): -0.9% | inhibition (IRAK4 (human); compound 0.001 µM): -5.7% | inhibition (IRAK4 (human); compound 0.02 µM): -6.7% | inhibition (JAK1 JH1 JH2 (human); compound 0.001 µM): -7.4% | inhibition (JAK1 JH1 JH2 (human); compound 0.02 µM): -3.3% | inhibition (AKT2 (human); compound 0.001 µM): 0.8% | inhibition (AKT2 (human); compound 0.02 µM): -4.1% | inhibition (WNK1 (human); compound 0.001 µM): 4.1% | inhibition (WNK1 (human); compound 0.02 µM): 2.1% | inhibition (SYK (human); compound 0.001 µM): -9.8% | inhibition (SYK (human); compound 0.02 µM): -8.9% | inhibition (PRKD3 (human); compound 0.001 µM): -4.3% | inhibition (PRKD3 (human); compound 0.02 µM): -1.6% | inhibition (FLT3 (human); compound 0.02 µM): 14.8% | inhibition (PIK3CA PIK3R1 (human); compound 0.001 µM): 40.8% | inhibition (PIK3CA PIK3R1 (human); compound 0.02 µM): 40.7% | inhibition (HCK (human); compound 0.02 µM): -7.8% | inhibition (LTK (human); compound 0.001 µM): 2.1% | inhibition (LTK (human); compound 0.02 µM): 0.9% | inhibition (MARK1 (human); compound 0.001 µM): -3.2% | inhibition (PAK3 (human); compound 0.001 µM): -1.3% | inhibition (PAK3 (human); compound 0.02 µM): 7.8% | inhibition (INSR (human); compound 0.001 µM): -0.3% | inhibition (INSR (human); compound 0.02 µM): -8.6% | inhibition (IGF1R (human); compound 0.001 µM): 0.7% | inhibition (IGF1R (human); compound 0.02 µM): -1.8% | inhibition (MERTK (human); compound 0.001 µM): 1% | inhibition (MERTK (human); compound 0.02 µM): 3.9% | inhibition (ABL2 (human); compound 0.001 µM): 5.8% | inhibition (ABL2 (human); compound 0.02 µM): 58.4% | inhibition (PRKX (human); compound 0.001 µM): 0.1% | inhibition (PRKX (human); compound 0.02 µM): -1.7% | inhibition (PRKCQ (human); compound 0.001 µM): 9.9% | inhibition (PRKCQ (human); compound 0.02 µM): -1.9% | inhibition (MST1R (human); compound 0.001 µM): 0.8% | inhibition (MST1R (human); compound 0.02 µM): 1.8% | inhibition (EPHA2 (human); compound 0.001 µM): -8.3% | inhibition (EPHA2 (human); compound 0.02 µM): -6.2% | inhibition (SGK3 (human); compound 0.001 µM): 13.9% | inhibition (SGK3 (human); compound 0.02 µM): 0.8% | inhibition (SPHK2 (human); compound 0.001 µM): 2.8% | inhibition (SPHK2 (human); compound 0.02 µM): -4.8% | inhibition (BMX (human); compound 0.001 µM): 7.1% | inhibition (BMX (human); compound 0.02 µM): 4.9% | inhibition (FYN (human); compound 0.001 µM): 7.3% | inhibition (FYN (human); compound 0.02 µM): 6.1% | inhibition (CSNK2A1 (human); compound 0.001 µM): -3.2% | inhibition (CSNK2A1 (human); compound 0.02 µM): -4.4% | inhibition (BRSK2 (human); compound 0.001 µM): -3.5% | inhibition (BRSK2 (human); compound 0.02 µM): 12.9% | inhibition (ITK (human); compound 0.001 µM): 2.8% | inhibition (ITK (human); compound 0.02 µM): 1.9%
SMILES: CNC(=O)c1ccccc1Sc1ccc2c(/C=C/c3ccccn3)n[nH]c2c1
